“And” between values parts separate entries of the source, which are not always exact repeats. Equal values may be shown once.
Legend:
[1] = RNA encapsulation efficiency of LNPs by Quant-IT Ribogreen; format: physicochemical; conditions: for Encaps. efficiency (%): LNPs with luciferase mRNA, ionizable lipid:non-cationic lipid:sterol:PEG-modified lipid 50:10:38.5:1.5, percentage of RNA entrapped in the LNP
Summary of the method: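 LNPs formed by mixing aqueous mRNA into ethanol lipid solution, diluted 1:1 in Tris, dialysed overnight against Tris with 15% sucrose. Encapsulated mRNA measured by Ribogreen fluorescence per kit protocol; LNPs adjusted to 100 µg/ml final mRNA.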

[2] = Size distribution, polydispersity and Z-potential of LNPs by dynamic light scattering (Malvern Zetasizer); format: physicochemical; conditions: LNPs, standard formulation 50:10:38.5:1.5; DLS
Experimental: The LNP solution was then adjusted to a final concentration of mRNA of 100 µg/ml. Size distribution, polydispersity and Z-potential were measured by dynamic light scattering (DLS) using Malvern Zetasizer Advance Lab Blue Label. RNA encapsulation was assessed by Quant-IT® Ribogreen following the manufacturer's instructions.

[3] = Apparent pKa of LNPs comprising the ionizable lipid (Table 6); conditions: standard formulation 50:10:38.5:1.5

Row | SMILES | Encaps. efficiency (%) [1] | P.D.I. [2] | Particle size/ Ø (nm) [2] | Z Potential (± D.E.) [mV] [2] | Apparent pKa [3] | Encaps. efficiency ([1]; Table 8, LNP 50:10:38.5:1.5, luciferase mRNA)
1 | CCCCCCCCCCC(CCCCCCCC)C(=O)NC(CCSCCC(=O)OCCCCCCCC)C(=O)NCC1CCN(C)CC1 (stereo not drawn) [VC-LC-0519] | 97.15% | 0.16 | 137.9 nm | -1.93 mV | 6.69 | –
2 | CCCCCCCC/C=C\CCCCCCCCOC(=O)CCSCCC(NC(=O)C(CCCCCCCC)CCCCCCCCCC)C(=O)NCC1CCN(C)CC1 (stereo not drawn) [VC-LC-0523] | 95.57% | 0.17 | 169.3 nm | 5.29 mV | 7.32 | –
3 | CCCCCCCCC(CCCCCC)COC(=O)CCSCC(CC(=O)NC1CCN(C)CC1)C(=O)OCC(CCCCCC)CCCCCCCC (stereo not drawn) [VC-LC-0525] | 59.89% | 0.18 | 151 nm | -5.11 mV | 6.67 | 59.9% and 95.6%
4 | CCCCCCCCC(CCCCCC)COC(=O)C(CSCCC(=O)OCCCCCC(C)C)CC(=O)NC1CCN(C)CC1 (stereo not drawn) [VC-LC-0532] | 99.89% | 0.15 | 137.8 nm | 8.05 mV | 8.11 | –
5 | CCCCCCCCOC(=O)CCSCC(CC(=O)NC1CCN(C)CC1)C(=O)OCC(CCCCCC)CCCCCCCC (stereo not drawn) [VC-LC-0535] | 96.61% | 0.11 | 144.7 nm | 4.45 mV | 7.87 | –
6 | CCCCCCCCCCCCC(CCCCCCCCCC)COC(=O)CCSCC(CC(=O)NC1CCN(C)CC1)C(=O)OCC(CCCCCC)CCCCCCCC (stereo not drawn) [VC-LC-0537] | 69.42% | 0.14 | 165.1 nm | -8.81 mV | 5.23 | –
7 | CCCCCCCC#CCOC(=O)CCSCC(CC(=O)NC1CCN(C)CC1)C(=O)OCC(CCCCCC)CCCCCCCC (stereo not drawn) [VC-LC-0538] | 96.86% | 0.16 | 153.4 nm | 5.13 mV | 8.25 | –
8 | CCCCCCCCC(CCCCCC)COC(=O)CCSCC(CC(=O)NCCCN1CCOCC1)C(=O)OC(CCCCCCCC)CCCCCCCC (stereo not drawn) [VC-LC-0541] | 42.80% | 0.11 | 154.7 nm | -6.83 mV | 6.39 | –
9 | CCCCCCCCC(CCCCCCCC)OC(=O)C(CSCCC(=O)OCCCCCCCC(C)C)CC(=O)NCCCN1CCOCC1 (stereo not drawn) [VC-LC-0542] | 33.76% | 0.14 | 156.3 nm | -10.60 mV | 6.43 | –
10 | CCCCCCCCC(CCCCCCCC)OC(=O)C(CSCCC(=O)OCC(CC)CCCC)CC(=O)NCCCN1CCOCC1 (stereo not drawn) [VC-LC-0543] | 31.75% | 0.14 | 155.7 nm | -10.98 mV | 6.61 | –
11 | CCCCCCCCCCCCOC(=O)CCSCC(CC(=O)NCCCN1CCOCC1)C(=O)OC(CCCCCCCC)CCCCCCCC (stereo not drawn) [VC-LC-0544] | 36.86% | 0.12 | 140.3 nm | -11.02 mV | 6.53 | –
12 | CCCCCCCCCCC(CCCCCCCC)C(=O)NC(CCSCCC(=O)OCC(CC)CCCC)C(=O)NC1CCN(C)CC1 (stereo not drawn) [VC-LC-0559] | 65.25% | 0.14 | 138.8 nm | -5.71 mV | 6.40 | –
13 | CCCCCCCCCCC(CCCCCCCC)C(=O)NC(CCSCCC(=O)OCCCCCC)C(=O)NC1CCN(C)CC1 (stereo not drawn) [VC-LC-0566] | 55.25% | 0.13 | 149.0 nm | -3.35 mV | 6.57 | –

Source: patent publication EP4371976B1, “IONIZABLE LIPIDS AND LIPID NANOPARTICLES CONTAINING THEREOF” (Certest Biotec, S.L., priority 2022, dated 2024)
